Assay [1] relates to human-derived dental pulp stem cells. In words: Extracellular matrix calcification by Alizarin Red S staining during bone differentiation. It is filed as cell-based. Conditions: for calcification (Alizarin Red S staining): 0, 1, 5 and 1.0 μM/ml in bone differentiation induction medium. Here is the method: Human-derived dental pulp stem cells (4×10^5 cells/ml) were cultured in Miltenyi Stem MACS MSC Expansion Media Kit XF medium containing 100 μg/ml streptomycin and 100 μg/ml penicillin, followed by culturing in bone differentiation induction medium (10% fetal bovine serum, […] dexamethasone, 10 mM β-glycerophosphate, and 50 mM ascorbic acid). Beck 35 (LPAR2 inhibitor) and LPA were added to the bone differentiation induction medium at various concentrations (0, 1, 5 and 1.0 μM/ml). […] In order to quantify the degree of staining, the absorbance was measured at 562 nm after dissolving in 10% (WN) cetylpyridinium chloride and 10 mM sodium phosphate (pH 7.0) solution.
Human-derived dental pulp stem cells (4×10^5 cells/ml) were cultured in Miltenyi Stem MACS MSC Expansion Media Kit XF medium containing 100 μg/ml streptomycin and 100 μg/ml penicillin, and differentiation was induced for 14 days by changing to the bone differentiation induction medium. To the bone differentiation induction medium, RP10-83, an agonist of LPAR2 and H2L5186303, an antagonist of LPAR2 were added at various concentrations (0, 1, and 10 μM/ml). The cells in which bone differentiation was induced were washed twice with PBS, fixed with 70% ethanol at 4° C. for 1 hour, stained with 40 mM Alizarin Red S (pH 4.2, Sigma Co.) solution for 10 minutes, and then washed with distilled water sufficiently. In order to quantify the degree of staining, the absorbance was measured at 562 nm after dissolving in a 10% (WN) cetylpyridinium chloride and 10 mM sodium phosphate (pH 7.0) solution.
Human-derived dental pulp stem cells (4×10^5 cells/ml) were cultured in a growth medium without antibiotics. 50 nM of LPAR2 si-RNA was transfected using jetPRIME (Polyplus Transfection) according to the manufacturers protocol. As a control, non-targeting siRNA (SEQ ID NO: 1: […]) was transfected. The differentiation of the cells was induced for 7 days after changing to bone differentiation induction medium. […]

The test system of another assay is tooth germ mesenchyme. In words: Real-time PCR analysis of in vitro cultured tooth germ mesenchyme. Conditions: 24 hours, 5 μM, vs control group. In kind it is cell-based, mouse. Here is the method:
(§1) Experimental animals were carried out using mouse ICR-based male 8 week-old mice. After anesthesia is performed by administering intraperitoneally Zoletil (Virbac, Carros, France) and Rompun (Bayer, Berlin, Germany), which are anesthetic inducing agents according to the weight, an experiment was conducted to expose the pulp cavity for the maxillary right first molars. To confirm the change in gene expression, an experiment was conducted on the developing 14th day pregnant embryo. ICR-based female mice whose pregnancy was confirmed were sacrificed in the morning of the 14th day after pregnancy, and then embryos were obtained and the tooth germ of the lower jaw was finely dissected under a stereoscopic microscope, and the tooth germ tissue was placed on the lid of a 35 mm diameter Petri dish for experimentation together with the culture solution and cultured in a 5% carbon dioxide incubator at 37° C. for 24 hours with or without Beck 35 drug administration.
In order to confirm the change in gene expression by Beck 35 drugs, in vitro culture was performed by microdissecting the tooth germ at the 14th day of the embryonic period, and the group treated with the drug for 24 hours was set as the experimental group, and the untreated tissue was set as the control group, and changes in gene expression were confirmed by real-time PCR analysis. After RNA was obtained from the cultured tissue, the first strand cDNA was synthesized and the expression level was confirmed by real-time PCR for genes known to be important for dentin formation until now.

Assay [2] concerns human-derived dental pulp stem cells. In words: Cell viability measurement (MTT method). It is filed as cell-based. Conditions: 24 hours; for proliferation of human-derived dental pulp stem cells (cell viability, MTT): expansion medium, vs control. Here is the method:
Cell viability measurement was evaluated by the 3-(4,5-dimethylthiazol-2-yl)-2,5-diphenyl-2H-tetrazolium bromide (MTT) method. Human-derived dental pulp stem cells were coated with 0.2% gelatin one day before culture. On the day of incubation, 0.2% gelatin was removed from the 48-well plate and washed once with PBS. In 48-well plates, human-derived dental pulp stem cells (4×10^5 cells/ml) were cultured in Miltenyi Stem MACS MSC Expansion Media Kit XF medium containing 100 μg/ml streptomycin and 100 μg/ml penicillin. Beck 35 was evaluated at various concentrations (0, 0.1, 1 and 1.0 μg/ml) for 24 hours at 37° C. in an atmosphere of 5% CO2 and 95% humidity. Then, the cells were incubated with 0.5 mg/ml MTT (SIGMA, USA) for 3 hours, and the reaction was stopped by adding dimethyl sulfoxide (DMSO, JUNSEL, Japan). Results were obtained at 560 nm using an ELISA reader. The cell viability of the control cells was used as a 100% control value.
In addition, human-derived dental pulp stem cells were cultured in bone differentiation inducing medium (10% fetal bovine serum, […] dexamethasone, 10 mM β-glycerophosphate and 50 mM ascorbic acid) for 24 hours to induce the differentiation and various concentrations (1, 5 and 1.0 μM/ml) of Beck 35 were treated during differentiation.

In assay [3] the test system is dental papilla mesenchyme. In words: Real-time PCR analysis of in vitro cultured dental papilla mesenchyme. It is filed as cell-based, mouse. The following applies: 24 hours, vs control group. Here is the method: as §1
In order to confirm the change in gene expression by Beck 35 drugs, in vitro culture was performed by microdissecting the tooth germ at the 14th day of the embryonic period, and the group treated with the drug for 24 hours was set as the experimental group, and the untreated tissue was set as the control group, and changes in gene expression were confirmed by real-time PCR analysis. […]

Assay [4] relates to human-derived dental pulp stem cells. In words: Real-time PCR analysis of differentiation genes. It is filed as cell-based. The following applies: 1 μM once every 3 days, 7 days in bone differentiation medium. The procedure: As in Example 2-2, human-derived dental pulp stem cells were differentiated for 7 days, 14 days and 21 days in a bone differentiation induction culture medium. Beck 35 was added to the bone differentiation medium at a concentration of 1 μM once every 3 days to differentiate for a week. Those maintained with the human-derived dental pulp stem cells, induced differentiation for 7 days, 14 days and 21 days with bone differentiation medium, and induced differentiation for 7 days in bone differentiation medium containing Beck 35 was used to isolate total RNA with Trisure (Bioline, UK) and reverse transcription to cDNA was performed using HelixCript™ Thermo Reverse Transcriptase (NanoHelix, Korea, Daejeon, Korea). The synthesized cDNA was performed using the primers of Table 1 and Power SYBR Green PCR Master Mix. The data analysis was determined using the delta Ct method.

Assay [5] has the same test system. Briefly: Electron microscope analysis after bone differentiation. In kind it is cell-based. The following applies: bone differentiation medium with vs without Beck 35. The procedure: As in Example 2-2, human-derived dental pulp stem cells were cultured in a culture medium for inducing bone differentiation with or without Beck 35, an inhibitor of LPAR2, to induce bone differentiation, and then observed by an electron microscope.

Assay [6] deals with exposed pulp cavity of mouse molars. Briefly: Pulp cavity exposure animal model (H&E, MTC, micro-CT, immunohistochemistry). It is filed as in vivo. Here is the method:
as §1, with “After” for “Experimental animals were carried out using mouse ICR-based male 8 week-old mice. After”
In order to prepare tissue sections, mice were sacrificed after a certain experimental period in the experimental group and the control group, fixed in 4% paraformaldehyde, washed with phosphate buffer solution, and demineralized in 0.1 M EDTA chelate solution. Demineralization proceeded for 4 weeks, and after demineralization, it was embedded in wax, cut to a thickness of 7 micrometers, and smeared on a glass slide to perform conventional hematoxylin and eosin staining.
MTC staining was performed to confirm the synthesis of collagen protein and formation of mineralized tissue. After staining the nucleus with hematoxylin for the tissue on the glass slide produced through the normal tissue sectioning process and if the entire tissue is stained with a mixed dyeing solution designed to perform cytoplasmic staining with biebrich scarlet and muscle fibers staining with acid fuchsin, all of collagen fibers, muscle fibers and cytoplasm can be observed by staining red.
Microcomputerized tomography was performed to confirm the hard tissue regenerated by the drug. The lower jaw tissue fixed in 4% paraformaldehyde was observed using Skyscan1272 (Bruker, Kontich, Belgium), and 2 micrometers pixels were photographed at 4904×3280 resolution for the entire 360 degree, and the image was reconstructed in 3D with a data viewer and then the degree of hard tissue formation was objectively analyzed by analyzing with the CTAn (Bruker) program.
While observing the oral cavity of anesthetized mice under a stereoscopic microscope, a pulp cavity exposure experiment was performed on the upper right first molar, and the left upper first molar was used as a untreated control. While observing with a stereoscopic microscope, using a round burr having 0.6 mm diameter connected to a high-speed handpiece, the enamel and dentin was exposed to be perpendicular to the occlusal surface, and when necessary, water was sprayed to minimize tissue damage. Afterwards, the Beck 35 drug was mounted on Pluronic F127 and delivered to the exposed pulp cavity. Only Pluronic F127 was delivered to confirm as a control. After the delivery of the Beck 35 drug to the pulp cavity, the doubly exposed pulp cavity was covered with Dycal (Dentsply Caulk, Milford, DE) and a […] composite resin. Thereafter, on the 3rd, 5th and 42nd days, the changes were confirmed by histological and microcomputed tomography techniques.
To confirm the expression of the protein, the expression pattern of NESTIN, a protein specific for odontoblasts, was confirmed by immunohistochemistry using tissue sections from the control and treatment groups. The expression of the protein was confirmed based on the antigen-antibody reaction, and the positive reaction of the protein was confirmed as brown with 3,3′-diaminobenzidine.

The mark [7] stands for this setting: after 3 and 5 days, vs control group.
Where [8] appears, read: after 42 days, vs control group.

“Also recorded” adds a separate entry of the source.

Take lysophosphatidic acid [LPA]: the “calcification (Alizarin Red S staining)” value in assay [1] is recorded as “did not undergo the calcification”.

For the compound `Cc1csc2c(N[C@@H](C)CN3CCN(S(=O)(=O)c4ccc(Cl)c(Cl)c4)CC3)ncnc12` [Beck 35], in the assay on tooth germ mesenchyme, the “expression of Axin2 (Wnt signaling)” value is on record as “reduced”, the “expression of Bmp2” value is listed as “reduced”, the “expression of Bmp4” value was “reduced” and the “expression of Bmp6” value is “reduced”. Besides, in the assay with tooth germ mesenchyme, the “expression of Bmp7” value is “reduced”, the “expression of Lef1 (Wnt signaling)” value is listed as “reduced” and the “expression of beta-Catenin (Wnt signaling)” value was “reduced”. In addition, in assay [1], the “calcification (Alizarin Red S staining)” value is given as “promoted the calcification in a concentration-dependent manner”. The “proliferation of human-derived dental pulp stem cells (cell viability, MTT)” value in assay [2] (10 μM/ml) is “promoted the proliferation”. In addition, the “proliferation of human-derived dental pulp stem cells (cell viability, MTT)” value in assay [2] (0.1 and 1 μM/ml) is recorded as “not different from the control”. Further, in assay [2] (1, 5 and 1.0 μM/ml, bone differentiation inducing medium), the “proliferation of human dental pulp stem cells during differentiation” value is reported as “inhibited the proliferation”. For the same compound, in assay [3], the “expression of Bmp6” value was “increased” and the overall gene expression entry is “overall gene expression increased”. Besides, in assay [4], the “expression level of DMP-1 (dentin matrix protein 1)” value is reported as “Increased”, the “expression level of DSPP (dentin sialophosphoprotein)” value is given as “Increased”, the “expression level of Runx2 (runt-related transcription factor 2)” value is reported as “Increased” and the “expression level of osteopontin” value is recorded as “Increased”. Further, the “cell morphology by electron microscope” value in assay [5] was “relatively long-shaped cells”. For the same compound, in assay [6] (3 and 5 days later), the “blood vessel distribution (MTC staining)” value is reported as “same blood vessel distribution as the HE staining result”; the “number of cells in which the inflammatory cells and the nucleus were thickly condensed (MTC staining)” value is recorded as “small”. Moreover, in assay [6] (42 days after pulp cavity exposure, vs control group), the “dentin bridge formation (micro-CT)” value is given as “dentin bridge was formed; also recorded: perfect dentin bridge was regenerated”. For the same compound, in assay [6] (Beck 35 5 μM in exposed pulp cavity, maxillary molar of 8-week-old B6 mice), the “dentin regeneration, morphological” value is given as “perfectly formed dentin bridge”. In addition, in assay [6] (setting [7]), the “NESTIN expression in pulp cavity periphery (immunohistochemistry)” value is “more positive reactions”, the “RUNX2 expression in pulp cavity periphery (immunohistochemistry)” value is recorded as “more positive reactions”, the “blood vessels in pulp cavity (H&E)” value is listed as “more tissues were observed as blood vessels” and the “staining of cell nuclei in the pulp cavity (H&E)” value is listed as “stained lighter than the control group”. Moreover, in assay [6] (setting [8]), the “formation of calcified dentin bridge (MTC staining)” value is given as “formation of calcified dentin bridge was confirmed” and the “formation of dentin bridge (H&E)” value is listed as “formation of dentin bridge was clearly observed”. Besides, the “new collagen fibers in pulp cavity (HE and MTC staining)” value in assay [6] (after treating exposed pulp cavity) is recorded as “new collagen fibers seen as pulp cavity internal tissue were confirmed”. Also, the “number of inflammatory cells (H&E)” value in assay [6] (treatment group vs control group) is reported as “in the control group, the number of inflammatory cells was observed higher than that of the treatment group”. Also, the “staining of enamel matrix” value in assay [6] (vs control group (dispersed and pale dyed)) is reported as “dyed dark red”.

Consider `O=C(O)/C=C\C(=O)Nc1ccc(Oc2cccc(Oc3ccc(NC(=O)/C=C\C(=O)O)cc3)c2)cc1` [H2L5186303], for which the “bone differentiation (Alizarin Red S staining)” value in assay [1] (0, 1, and 10 μM/ml, differentiation induced for 14 days) is recorded as “promoted bone differentiation”.
